# According to PMC11357256, “Selectivity Screening and Structure–Cytotoxic Activity Observations of Selected Oleanolic Acid (OA)-Type Saponins from the Amaranthaceae Family on a Wiade Panel of Human Cancer Cell Lines” (Molecules, 2024):
# Tests used:
# [1] = tested on: TPC-1; experiment: MTT cell viability assay, TPC-1 papillary thyroid carcinoma cells; format: cell-based, human; details: for IC50: Homo sapiens, TPC1
# Text: (§1) Cell lines used in the study were grouped as follows: skin panel (melanomas: HTB140, derived from metastatic site: lymph node, ATCC Hs 294 T; malignant A375, ATCC CRL-1619; stage I primary WM793, RRID:CVCL 8787; skin keratinocytes HaCaT); prostate panel (prostate carcinomas: Du145, derived from metastatic site: brain, ATCC HTB-81; grade IV PC3, derived from metastatic site: bone, ATCC CRL-1435, LNCaP, derived from the metastatic site: lymph node, ATCC CRL-1740; prostate epithelial, PNT2, ECACC 95012613); gastrointestinal panel (colorectal adenocarcinomas: Caco2, ATCC HTB-37, HT29, ATCC HTB-38, DLD-1, ATCC CCL-221, HCT116, ATCC CCL-247, and colon epithelial cells CCD 841 CoN, ATCC CRL-1790; hepatocellular carcinoma HepG2, ATCC HB-8065); thyroid panel (follicular thyroid carcinoma FTC133, ECACC 9406090, undifferentiated thyroid carcinoma 8505C, ECACC 94090184, papillary thyroid carcinoma TPC-1, SCC147, normal thyroid follicular epithelial Nthy-ori 3–1, ECACC 90011609); and breast panel (ER-positive breast adenocarcinoma MCF7, ATCC HTB-22; ER-negative breast adenocarcinoma MDA-MB-231, ATCC HTB-26; breast epithelial MCF10A, ATCC CRL-10317). Cells were grown under standard conditions (37 °C, 5% CO2, relative humidity), and culture media (DMEM/F12 for PNT2, WM 793, HT29, PC3, FTC133, 8505 C, MDA-MB-231, TPC-1; DMEM Low Glucose for DU145; DMEM High Glucose for HTB140, A375, HaCaT; MEM with NEAA for Caco2 and MCF7; RPMI1640 with sodium pyruvate for LNCaP; DMEM/F12 with 20 ng/mL epidermal growth factor (EGF), 10 μg/mL insulin, 0.5 μg/mL hydrocortisone, 100 ng/mL cholera toxin) for MCF10A) supplemented with 10% fetal bovine serum (FBS) or 5% donor horse serum for MCF10A, and 1% antibiotics solution (10,000 U penicillin and 10 mg streptomycin/mL) […], as previously described. All cell lines, culture media, and supplements were from Sigma-Aldrich (Germany).
# (§2) The cells were seeded in 96-well plates (1.5 × 10^4 cells/well). After 24 h, fresh medium was added, containing the tested compounds (0.5–100 μg/mL) and incubated for 24 or 48 h. Cell viability was determined by MTT assay, according to the manufacturer’s instructions, as described previously. Each experiment was performed in triplicate. The absorbance was measured at 570 nm using a Biotek Synergy microplate reader (BioTek Instruments Inc., Winooski, VT, USA). Cell viability was expressed as a percent of control (untreated cells). Doxorubicin was used as a reference drug.
# (§3) The selectivity index (SI) was calculated from the following formula:SI = IC50 of compound in a normal cell line/IC50 of compound in cancer cell line.IC50, half maximal inhibitory concentration, is a concentration required to kill 50% of the cells.
# [2] = tested on: Caco-2; experiment: MTT cell viability assay, Caco-2 colon cancer cells; format: cell-based; details: Homo sapiens
# Text: as §1, §2
# [3] = tested on: HTB-140; experiment: MTT cell viability assay, HTB-140 metastatic melanoma cells; format: cell-based, human; details: for IC50: Homo sapiens; for Selectivity Index (SI): IC50 HaCaT / IC50 HTB-140, 24 h
# Text: as §1, §2, §3
# [4] = tested on: Du-145; experiment: MTT cell viability assay, Du-145 prostate carcinoma cells; format: cell-based; details: Homo sapiens
# Text: as §1, §2
# [5] = tested on: CCD 841 CoN; experiment: MTT cell viability assay, CCD 841 CoN normal colon epithelial cells; format: cell-based; details: Homo sapiens
# Text: as §1, §2
# [6] = tested on: PNT2; experiment: MTT cell viability assay, PNT2 normal prostate epithelial cells; format: cell-based; details: Homo sapiens
# Text: as §1, §2
# [7] = tested on: Nthy-ori 3-1; experiment: MTT cell viability assay, Nthy-ori 3-1 normal thyroid epithelial cells; format: cell-based; details: Homo sapiens
# Text: as §1, §2
# [8] = tested on: WM793; experiment: MTT cell viability assay, WM793 primary melanoma cells; format: cell-based, human; details: for IC50: Homo sapiens
# Text: as §1, §2, §3
# [9] = tested on: DLD-1; experiment: MTT cell viability assay, DLD-1 colon cancer cells; format: cell-based; details: Homo sapiens
# Text: as §1, §2
# [10] = tested on: HepG2; experiment: MTT cell viability assay, HepG2 hepatocellular carcinoma cells; format: cell-based; details: Homo sapiens
# Text: as §1, §2
# [11] = tested on: FTC133; experiment: MTT cell viability assay, FTC133 follicular thyroid carcinoma cells; format: cell-based, human; details: for IC50: Homo sapiens, FTC-133
# Text: as §1, §2, §3
# [12] = tested on: A375; experiment: MTT cell viability assay, A375 malignant melanoma cells; format: cell-based, human; details: for IC50: Homo sapiens, A-375; for Selectivity Index (SI): IC50 HaCaT / IC50 A375, 24 h
# Text: as §1, §2, §3
# [13] = tested on: PC3; experiment: MTT cell viability assay, PC3 prostate carcinoma cells; format: cell-based; details: Homo sapiens, PC-3
# Text: as §1, §2
# [14] = tested on: HCT116; experiment: MTT cell viability assay, HCT116 colon cancer cells; format: cell-based; details: Homo sapiens, HCT-116
# Text: as §1, §2
# [15] = tested on: 8505C; experiment: MTT cell viability assay, 8505C undifferentiated thyroid carcinoma cells; format: cell-based, human; details: for IC50: Homo sapiens, 8505C; for Selectivity Index (SI): IC50 Nthy-ori 3-1 / IC50 8505C
# Text: as §1, §2, §3
# [16] = tested on: LNCaP; experiment: MTT cell viability assay, LNCaP prostate adenocarcinoma cells; format: cell-based; details: Homo sapiens
# Text: as §1, §2
# [17] = tested on: HaCaT; experiment: MTT cell viability assay, HaCaT keratinocytes; format: cell-based; details: Homo sapiens
# Text: as §1, §2
# [18] = tested on: HT29; experiment: MTT cell viability assay, HT29 colorectal adenocarcinoma cells; format: cell-based; details: Homo sapiens, HT-29
# Text: as §1, §2
# [19] = tested on: MCF10A; experiment: MTT cell viability assay, MCF10A normal breast epithelial cells; format: cell-based; details: Homo sapiens, MCF-10A
# Text: as §1, §2
# [20] = tested on: MDA-MB-231; experiment: MTT cell viability assay, MDA-MB-231 breast adenocarcinoma cells; format: cell-based; details: Homo sapiens
# Text: as §1, §2
# [21] = tested on: MCF7; experiment: MTT cell viability assay, MCF7 breast adenocarcinoma cells; format: cell-based; details: Homo sapiens
# Text: as §1, §2
# [22] = IC50 Nthy-ori 3-1 / IC50 TPC-1, 24 h
# [23] = IC50 Nthy-ori 3-1 / IC50 FTC133, 24 h
compound,measurement,setting,value
"COc1cccc2c1C(=O)c1c(O)c3c(c(O)c1C2=O)C[C@@](O)(C(=O)CO)C[C@@H]3O[C@H]1C[C@H](N)[C@H](O)[C@H](C)O1 [DOX, Doxorubicin]",IC50,"[1]; TPC-1, 24 h",3.9 µg/mL
same,Selectivity Index (SI),[1]; [22],7.0
same,IC50,"[2]; Caco-2, 24 h",3.4 µg/mL
same,IC50,"[3]; HTB-140, 24 h",5.7 µg/mL
same,Selectivity Index (SI),[3],0.8
same,IC50,"[4]; DU-145, 24 h",3.2 µg/mL
same,IC50,[5]; 24 h,1.7 µg/mL
same,IC50,[6]; 24 h,1.4 µg/mL
same,IC50,[7]; 24 h,27.2 µg/mL
same,IC50,"[8]; WM793, 24 h",> 40 µg/mL
same,IC50,"[9]; DLD-1, 24 h",1.1 µg/mL
same,IC50,"[10]; HepG2, 24 h",1 µg/mL
same,IC50,"[11]; FTC133, 24 h",4 µg/mL
same,Selectivity Index (SI),[11]; [23],6.76
same,IC50,"[12]; A375, 24 h",0.6 µg/mL
same,Selectivity Index (SI),[12],7.9
same,IC50,"[13]; PC3, 24 h",> 50 µg/mL
same,IC50,"[14]; HCT116, 24 h",4 µg/mL
same,IC50,[15]; 24 h,> 40 µg/mL
same,IC50,[16]; 24 h,1.8 µg/mL
same,IC50,[17]; 24 h,4.7 µg/mL
same,IC50,"[18]; HT29, 24 h",1.5 µg/mL
"CC1(C)CCC2(C(=O)O)CCC3(C)C(=CCC4C5(C)CCC(OC6OC(C(=O)O)C(O)C(OC7OCC(O)C(O)C7O)C6O)C(C)(C)C5CCC43C)C2C1 [MIc, oleanolic acid-3-O-[β-D-xylopyranosyl(1→3)-β-D-glucuronopyranoside]]",IC50,"[1]; TPC-1, 24 h",39 µg/mL
same,IC50,"[1]; TPC-1, 48 h",39 µg/mL
same,Selectivity Index (SI),[1]; [22],2.2
same,Selectivity Index (SI),"[1]; IC50 Nthy-ori 3-1 / IC50 TPC-1, 48 h",1.6
same,IC50,"[2]; Caco-2, 24 h",7 µg/mL
same,IC50,"[2]; Caco-2, 48 h",4.3 µg/mL
same,IC50,"[3]; HTB-140, 24 h",7.8 µg/mL
same,IC50,"[3]; HTB-140, 48 h",3 µg/mL
same,Selectivity Index (SI),[3],0.7
same,IC50,"[4]; DU-145, 24 h",5.4 µg/mL
same,IC50,"[4]; DU-145, 48 h",2.8 µg/mL
same,IC50,[5]; 24 h,> 100 µg/mL
same,IC50,[5]; 48 h,> 100 µg/mL
same,IC50,[6]; 24 h,> 100 µg/mL
same,IC50,[6]; 48 h,> 100 µg/mL
same,IC50,[7]; 24 h,86.2 µg/mL
same,IC50,[7]; 48 h,64.4 µg/mL
same,IC50,"[8]; WM793, 24 h",2 µg/mL
same,IC50,"[8]; WM793, 48 h",1 µg/mL
same,Selectivity Index (SI),"[8]; IC50 HaCaT / IC50 WM793, 24 h",2.6
same,Selectivity Index (SI),"[8]; IC50 HaCaT / IC50 WM793, 48 h",2.7
same,IC50,"[9]; DLD-1, 24 h",16 µg/mL
same,IC50,"[9]; DLD-1, 48 h",8 µg/mL
same,IC50,"[10]; HepG2, 24 h",12.5 µg/mL
same,IC50,"[10]; HepG2, 48 h",9.5 µg/mL
same,IC50,[19]; 24 h,> 100 µg/mL
same,IC50,[19]; 48 h,> 100 µg/mL
same,IC50,"[11]; FTC133, 24 h",3.5 µg/mL
same,IC50,"[11]; FTC133, 48 h",2.1 µg/mL
same,Selectivity Index (SI),[11]; [23],24.85
same,Selectivity Index (SI),"[11]; IC50 Nthy-ori 3-1 / IC50 FTC133, 48 h",30.7
same,IC50,"[12]; A375, 24 h",1.9 µg/mL
same,IC50,"[12]; A375, 48 h",0.9 µg/mL
same,Selectivity Index (SI),[12],2.7
same,IC50,"[13]; PC3, 24 h",5.5 µg/mL
same,IC50,"[13]; PC3, 48 h",3.4 µg/mL
same,IC50,"[20]; MDA-MB-231, 24 h",52.2 µg/mL
same,IC50,"[20]; MDA-MB-231, 48 h",16.4 µg/mL
same,IC50,"[14]; HCT116, 24 h",9.4 µg/mL
same,IC50,"[14]; HCT116, 48 h",8.3 µg/mL
same,IC50,[15]; 24 h,10.6 µg/mL
same,IC50,[15]; 48 h,5.2 µg/mL
same,Selectivity Index (SI),[15]; 24 h,8.2
same,Selectivity Index (SI),[15]; 48 h,12.2
same,IC50,[16]; 24 h,> 100 µg/mL
same,IC50,[16]; 48 h,> 100 µg/mL
same,IC50,[17]; 24 h,5.3 µg/mL
same,IC50,[17]; 48 h,2.7 µg/mL
same,IC50,"[18]; HT29, 24 h",4.2 µg/mL
same,IC50,"[18]; HT29, 48 h",2.9 µg/mL
same,IC50,"[21]; MCF7, 24 h",> 100 µg/mL
same,IC50,"[21]; MCF7, 48 h",29.2 µg/mL
